Reference: patent US10071086B2, “1H-pyrazolo[3,4-b]pyridines and therapeutic uses thereof” (Samumed, LLC, priority 2012, dated 2018)

System: Wnt pathway
Test: Wnt activity reporter assay (SP5 promoter-luciferase in SW480 cells)
Format: cell-based
Settings: Homo sapiens, SP5 promoter firefly luciferase reporter, read-out: Wnt inhibition
Description: The above synthesized compounds were screened using the assay procedure for Wnt activity described below.
Reporter cell lines can be generated by stably transducing cells of cancer cell lines (e.g., colon cancer) with a lentiviral construct that include a wnt-responsive promoter driving expression of the firefly luciferase gene.
Lentiviral constructs can be made in which the SP5 promoter, a promoter having eight TCF/LEF binding sites derived from the SP5 promoter, is linked upstream of the firefly luciferase gene. The lentiviral constructs can also include a hygromycin resistance gene as a selectable marker. The SP5 promoter construct can be used to transduce SW480 cells, a colon cancer cell line having a mutated APC gene that generates a truncated APC protein, leading to de-regulated accumulation of β-catenin.
Cultured SW480 cells bearing a reporter construct can be distributed at approximately 10,000 cells per well into 96 well or 384 well plates. Compounds from a small molecule compound library can then be added to the wells in half-log dilutions using a ten micromolar top concentration. A series of control wells for each cell type receive only buffer and compound solvent. Twenty-four to forty hours after the addition of compound, reporter activity for luciferase can be assayed, for example, by addition of the BrightGlo luminescence reagent (Promega) and the Victor3 plate reader (Perkin Elmer). Readings can be normalized to DMSO only treated cells, and normalized activities can then be used in the IC50 calculations.

`CN1CCN(c2cncc(-c3cnc4[nH]nc(-c5nc6c(-c7cccc(F)c7)cncc6[nH]5)c4c3)c2)CC1` [Compound 4, 3-(7-(3-Fluorophenyl)-3H-imidazo[4,5-c]pyridin-2-yl)-5-(5-(4-methylpiperazin-1-yl)pyridin-3-yl)-1H-pyrazolo[3,4-b]pyridine] showed an IC50 of 333 nM.

Work on `O=C(Nc1cncc(-c2cnc3[nH]nc(-c4nc5c(-c6ccc(F)cc6)cccc5[nH]4)c3c2)c1)c1ccccc1` [Compound 573, N-(5-(3-(4-(4-Fluorophenyl)-1H-benzo[d]imidazol-2-yl)-1H-pyrazolo[3,4-b]pyridin-5-yl)pyridin-3-yl)benzamide] yielded an IC50 of 82 nM.

In the case of `CCCC(=O)Nc1cncc(-c2cnc3[nH]nc(-c4nc5c(-c6ccccc6F)cncc5[nH]4)c3c2)c1` [Compound 158, N-(5-(3-(7-(2-Fluorophenyl)-3H-imidazo[4,5-c]pyridin-2-yl)-1H-pyrazolo[3,4-b]pyridin-5-yl)pyridin-3-yl)butyramide], the IC50 is reported as 8 nM.

`c1ccc(CNCc2cncc(-c3cnc4[nH]nc(-c5nc6c(-c7ccncc7)cccc6[nH]5)c4c3)c2)cc1` [Compound 654, N-Benzyl-1-(5-(3-(4-(pyridin-4-yl)-1H-benzo[d]imidazol-2-yl)-1H-pyrazolo[3,4-b]pyridin-5-yl)pyridin-3-yl)methanamine] gave an IC50 of 1500 nM.

Compound `O=C(Nc1cncc(-c2cnc3[nH]nc(-c4nc5c(-c6ccccn6)cncc5[nH]4)c3c2)c1)C1CCC1` [Compound 229, N-(5-(3-(7-(Pyridin-2-yl)-3H-imidazo[4,5-c]pyridin-2-yl)-1H-pyrazolo[3,4-b]pyridin-5-yl)pyridin-3-yl)cyclobutanecarboxamide] has an IC50 of 12 nM.

For `Fc1cccc(-c2cncc3[nH]c(-c4n[nH]c5ncc(-c6cncc(CN7CCCC7)c6)cc45)nc23)c1` [Compound 27, 3-(7-(3-Fluorophenyl)-3H-imidazo[4,5-c]pyridin-2-yl)-5-(5-(pyrrolidin-1-ylmethyl)pyridin-3-yl)-1H-pyrazolo[3,4-b]pyridine], the IC50 was 1780 nM.

`CN1CCN(c2cncc3[nH]c(-c4n[nH]c5ncc(-c6cncc(NC(=O)C7CCCCC7)c6)cc45)nc23)CC1` [Compound 309, N-(5-(3-(7-(4-Methylpiperazin-1-yl)-3H-imidazo[4,5-c]pyridin-2-yl)-1H-pyrazolo[3,4-b]pyridin-5-yl)pyridin-3-yl)cyclohexanecarboxamide] showed an IC50 of 1020 nM.

`CN1CCN(c2cccc3[nH]c(-c4n[nH]c5ncc(-c6cncc(NC(=O)C7CCC7)c6)cc45)nc23)CC1` [Compound 752, N-(5-(3-(4-(4-Methylpiperazin-1-yl)-1H-benzo[d]imidazol-2-yl)-1H-pyrazolo[3,4-b]pyridin-5-yl)pyridin-3-yl)cyclobutanecarboxamide] was tested, and the IC50 was 226 nM.

Work on `CCNCc1cncc(-c2cnc3[nH]nc(-c4nc5c(N6CCN(C)CC6)cccc5[nH]4)c3c2)c1` [Compound 738, N-((5-(3-(4-(4-Methylpiperazin-1-yl)-1H-benzo[d]imidazol-2-yl)-1H-pyrazolo[3,4-b]pyridin-5-yl)pyridin-3-yl)methyl)ethanamine] yielded an IC50 of 550 nM.

Compound `CN(C)c1cncc(-c2cnc3[nH]nc(-c4nc5c(-c6ccsc6)cncc5[nH]4)c3c2)c1` [Compound 346, N,N-Dimethyl-5-(3-(7-(thiophen-3-yl)-3H-imidazo[4,5-c]pyridin-2-yl)-1H-pyrazolo[3,4-b]pyridin-5-yl)pyridin-3-amine] has an IC50 of 56 nM.

Compound `CCNCc1cncc(-c2cnc3[nH]nc(-c4nc5c(-c6cccc(F)c6)cccc5[nH]4)c3c2)c1` [Compound 547, N-((5-(3-(4-(3-Fluorophenyl)-1H-benzo[d]imidazol-2-yl)-1H-pyrazolo[3,4-b]pyridin-5-yl)pyridin-3-yl)methyl)ethanamine] has an IC50 of 97 nM.

`O=C(Nc1cncc(-c2cnc3[nH]nc(-c4nc5c(N6CCCCC6)cccc5[nH]4)c3c2)c1)c1ccccc1` [Compound 691, N-(5-(3-(4-(Piperidin-1-yl)-1H-benzo[d]imidazol-2-yl)-1H-pyrazolo[3,4-b]pyridin-5-yl)pyridin-3-yl)benzamide] gave an IC50 of 187 nM.

In the case of `Fc1cc(-c2cncc3[nH]c(-c4n[nH]c5ncc(-c6cccnc6)cc45)nc23)cc(N2CCNCC2)c1` [Compound 21, 3-(7-(3-Fluoro-5-(piperazin-1-yl)phenyl)-3H-imidazo[4,5-c]pyridin-2-yl)-5-(pyridin-3-yl)-1H-pyrazolo[3,4-b]pyridine], the IC50 is reported as 167 nM.

`CC(C)C(=O)Nc1cncc(-c2cnc3[nH]nc(-c4nc5c(-c6ccsc6)cccc5[nH]4)c3c2)c1` [Compound 793, N-(5-(3-(4-(Thiophen-3-yl)-1H-benzo[d]imidazol-2-yl)-1H-pyrazolo[3,4-b]pyridin-5-yl)pyridin-3-yl)isobutyramide] was tested, and the IC50 was 16 nM.

For `c1cncc(-c2cncc3[nH]c(-c4n[nH]c5ncc(-c6cncc(CN7CCCCC7)c6)cc45)nc23)c1` [Compound 178, 5-(5-(Piperidin-1-ylmethyl)pyridin-3-yl)-3-(7-(pyridin-3-yl)-3H-imidazo[4,5-c]pyridin-2-yl)-1H-pyrazolo[3,4-b]pyridine], the IC50 was 392 nM.

For `CC1CCN(c2cc(F)cc(-c3cncc4[nH]c(-c5n[nH]c6ncc(-c7cccnc7)cc56)nc34)c2)CC1` [Compound 19, 3-(7-(3-Fluoro-5-(4-methylpiperidin-1-yl)phenyl)-3H-imidazo[4,5-c]pyridin-2-yl)-5-(pyridin-3-yl)-1H-pyrazolo[3,4-b]pyridine], the IC50 was 499 nM.

`CN(C)c1cncc(-c2cnc3[nH]nc(-c4nc5c(-c6cccnc6)cccc5[nH]4)c3c2)c1` [Compound 616, N,N-Dimethyl-5-(3-(4-(pyridin-3-yl)-1H-benzo[d]imidazol-2-yl)-1H-pyrazolo[3,4-b]pyridin-5-yl)pyridin-3-amine] showed an IC50 of 1410 nM.

`O=C(Nc1cncc(-c2cnc3[nH]nc(-c4nc5c(-c6cccnc6)cncc5[nH]4)c3c2)c1)C1CCCCC1` [Compound 185, N-(5-(3-(7-(Pyridin-3-yl)-3H-imidazo[4,5-c]pyridin-2-yl)-1H-pyrazolo[3,4-b]pyridin-5-yl)pyridin-3-yl)cyclohexanecarboxamide] was tested, and the IC50 was 1320 nM.

`Fc1cccc(-c2cncc3[nH]c(-c4n[nH]c5ncc(-c6cncc(CN7CCCCC7)c6)cc45)nc23)c1` [Compound 28, 3-(7-(3-Fluorophenyl)-3H-imidazo[4,5-c]pyridin-2-yl)-5-(5-(piperidin-1-ylmethyl)pyridin-3-yl)-1H-pyrazolo[3,4-b]pyridine] was tested, and the IC50 was 720 nM.

`O=C(Nc1cncc(-c2cnc3[nH]nc(-c4nc5c(N6CCCCC6)cccc5[nH]4)c3c2)c1)C1CCCC1` [Compound 701, N-(5-(3-(4-(Piperidin-1-yl)-1H-benzo[d]imidazol-2-yl)-1H-pyrazolo[3,4-b]pyridin-5-yl)pyridin-3-yl)cyclopentanecarboxamide] showed an IC50 of 625 nM.

`c1csc(-c2cncc3[nH]c(-c4n[nH]c5ncc(-c6cncc(CNCC7CCCC7)c6)cc45)nc23)c1` [Compound 463, 1-Cyclopentyl-N-((5-(3-(7-(thiophen-2-yl)-3H-imidazo[4,5-c]pyridin-2-yl)-1H-pyrazolo[3,4-b]pyridin-5-yl)pyridin-3-yl)methyl)methanamine] showed an IC50 of 98 nM.

`Fc1cc(CN2CCCC2)cc(-c2cncc3[nH]c(-c4n[nH]c5ncc(-c6cccnc6)cc45)nc23)c1` [Compound 16, 3-(7-(3-Fluoro-5-(pyrrolidin-1-ylmethyl)phenyl)-3H-imidazo[4,5-c]pyridin-2-yl)-5-(pyridin-3-yl)-1H-pyrazolo[3,4-b]pyridine] showed an IC50 of 384 nM.

With `Cc1cn(-c2cccc3[nH]c(-c4n[nH]c5ncc(-c6cncc(CN(C)C)c6)cc45)nc23)cn1` [Compound 719, N,N-Dimethyl-1-(5-(3-(4-(4-methyl-1H-imidazol-1-yl)-1H-benzo[d]imidazol-2-yl)-1H-pyrazolo[3,4-b]pyridin-5-yl)pyridin-3-yl)methanamine] the IC50 was 200 nM.

Compound `CC(C)Nc1cncc(-c2cnc3[nH]nc(-c4nc5c(-c6cccc(F)c6)cccc5[nH]4)c3c2)c1` [Compound 551, 5-(3-(4-(3-Fluorophenyl)-1H-benzo[d]imidazol-2-yl)-1H-pyrazolo[3,4-b]pyridin-5-yl)-N-isopropylpyridin-3-amine] has an IC50 of 33 nM.

`CCCC(=O)Nc1cncc(-c2cnc3[nH]nc(-c4nc5c(-c6ccoc6)cccc5[nH]4)c3c2)c1` [Compound 827, N-(5-(3-(4-(Furan-3-yl)-1H-benzo[d]imidazol-2-yl)-1H-pyrazolo[3,4-b]pyridin-5-yl)pyridin-3-yl)butyramide] was tested, and the IC50 was 63 nM.

For `CCC(=O)Nc1cncc(-c2cnc3[nH]nc(-c4nc5c(-c6cccs6)cncc5[nH]4)c3c2)c1` [Compound 440, N-(5-(3-(7-(Thiophen-2-yl)-3H-imidazo[4,5-c]pyridin-2-yl)-1H-pyrazolo[3,4-b]pyridin-5-yl)pyridin-3-yl)propionamide], the IC50 was 4 nM.

Work on `CCCCC(=O)Nc1cncc(-c2cnc3[nH]nc(-c4nc5c(-c6cccc(F)c6)cccc5[nH]4)c3c2)c1` [Compound 557, N-(5-(3-(4-(3-Fluorophenyl)-1H-benzo[d]imidazol-2-yl)-1H-pyrazolo[3,4-b]pyridin-5-yl)pyridin-3-yl)pentanamide] yielded an IC50 of 53 nM.

Work on `Fc1ccc(-c2cncc3[nH]c(-c4n[nH]c5ncc(-c6cncc(CNCC7CCCC7)c6)cc45)nc23)cc1` [Compound 142, 1-Cyclopentyl-N-((5-(3-(7-(4-fluorophenyl)-3H-imidazo[4,5-c]pyridin-2-yl)-1H-pyrazolo[3,4-b]pyridin-5-yl)pyridin-3-yl)methyl)methanamine] yielded an IC50 of 645 nM.
